Activity calls are given as the source filed them. No cut-off for these calls is given here. Square brackets hold non-standard residues; d marks the D form. Peptide text beside a SMILES is read from it. ξ: configuration not given here. Dmt = Cc1cc(O)cc(C)c1C[C@H](N)C(=O)O; ξTic = O=C(O)C1Cc2ccccc2CN1
Assays:
[1] = molecular target: T1, Delta-type opioid receptor (Mus musculus, UniProt P32300); assay: (§1) Negative logarithm of the molar concentration of delta receptor was determined in mouse vas deferens; settings: read-out: pA2 (converted)
[2] = molecular target: T2, Mu-type opioid receptor (Cavia porcellus, UniProt P97266); assay: Negative logarithm of the molar concentration for agonist activity at mu receptor was determined in guinea pig ileum; assay type: functional, tissue-based
[3] = molecular target: Delta-type opioid receptor (Mus musculus) (UniProt P32300)
[4] = molecular target: Delta-type opioid receptor (Mus musculus) (UniProt P32300); assay: Negative logarithm of the molar concentration of delta receptor was determined in mouse vas deferens; i represents inactivity up to 1 mM; assay type: functional
[5] = molecular target: T2, Mu-type opioid receptor; assay: Negative logarithm of the molar concentration for agonist activity at Opioid receptor mu 1 was determined in guinea pig ileum; assay type: functional, tissue-based
[6] = molecular target: T1, Delta-type opioid receptor; assay: as §1; assay type: functional; settings: read-out: pA2 (converted)

T2 sequence (P97266 whole entry): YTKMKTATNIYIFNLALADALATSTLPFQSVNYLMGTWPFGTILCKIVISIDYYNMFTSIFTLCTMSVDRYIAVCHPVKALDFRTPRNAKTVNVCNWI
T1 sequence (P32300 whole entry): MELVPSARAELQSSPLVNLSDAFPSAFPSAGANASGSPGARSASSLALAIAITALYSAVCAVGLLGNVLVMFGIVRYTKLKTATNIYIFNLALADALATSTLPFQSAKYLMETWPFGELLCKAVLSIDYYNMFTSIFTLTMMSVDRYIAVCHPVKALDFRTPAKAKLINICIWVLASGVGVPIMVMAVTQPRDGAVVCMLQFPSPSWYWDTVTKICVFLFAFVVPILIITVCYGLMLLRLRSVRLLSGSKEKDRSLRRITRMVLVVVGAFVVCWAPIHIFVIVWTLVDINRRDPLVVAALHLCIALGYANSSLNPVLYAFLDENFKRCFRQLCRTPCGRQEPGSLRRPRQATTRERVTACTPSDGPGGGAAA
Chain of Delta-type opioid receptor (Mus musculus) (P32300 whole entry): as above

Row | Structure (SMILES) | Kb [1] | EC50 [2] | Log EC50 [3] | Log EC50 [4] | EC50 [5] | Kb [6]
1 | Cc1cc(O)cc(C)c1C[C@H](N)C(=O)N1Cc2ccc(F)cc2CC1C(=O)O (some centres undefined) | 35.5 nM | 813 nM | inactive |  |  | 
2 | Cc1cc(O)cc(C)c1C[C@H](N)C(=O)N1CCc2ccccc2C1 | 38.9 nM | 490 nM |  | inactive |  | 
3 | Cc1cc(O)cc(C)c1C[C@H](N)C(=O)N1Cc2ccccc2CC1C(N)=O (some centres undefined) (H-[Dmt]-[ξTic]-NH2) |  |  |  | inactive | > 10000 nM | 63.1 nM
4 | Cc1cc(O)cc(C)c1C[C@H](N)C(=O)N1Cc2ccccc2CC1COCc1ccccc1 (some centres undefined) | 13.5 nM | 525 nM | inactive |  |  | 
5 | Cc1cc(O)cc(C)c1C[C@H](N)C(=O)N1Cc2ccccc2CC1CO (some centres undefined) |  |  |  | inactive | > 10000 nM | 100 nM
6 | C[C@@H](NC(=O)[C@@H](N)Cc1ccc(O)cc1)C(=O)N[C@@H](Cc1ccccc1)C(=O)NCC(=O)N[C@@H](Cc1ccc(O)cc1)C(=O)N1CCC[C@H]1C(=O)N[C@@H](CO)C(N)=O [DERMORPHIN] |  | 1.58 nM |  |  |  | 
7 | Cc1cc(O)cc(C)c1C[C@H](N)C(=O)N1CCc2ccc(F)cc2C1 | 617 nM | 631 nM | inactive |  |  | 
